# Laboratory results published in patent US12617818B2, “Compositions and methods for modulating myosin subfragment-2 coiled coil stability and methods for using them” (UNIVERSITY OF NORTH TEXAS, priority 2020, dated 2026).
# Columns and labels:
# [1] = molecular target: T1, cardiac muscle myosin S2 mutant peptide E924K (MYH7) (Homo sapiens, UniProt P12883, E924K); experiment: FRET of E924K mutant cardiac myosin S2 peptide dimer with stabilizer; type: binding
# T1 construct: cardiac muscle myosin S2 peptides region 921 to 939; host or cells: chemical synthesis
# Source text: This mutation also causes mechanical instability and unstable coiled coil. Sequence of this mutation was obtained using PDB. A 19 residue peptide of this region was chemically synthesized. Generated amino acid sequence used is as follow: • E924K: NH2-[…]—COOH (SEQ ID NO:9)
# Resonance energy probes (donor and acceptor) were covalently attached to synthetic myosin S2 peptides of cardiac muscle, E930del cardiac muscle, E924K cardiac muscle, smooth muscle, and skeletal muscle (Aboonasrshiraz, N., 2020).
# Acceptor probe was conjugated to muscle myosin S2 peptides at N-terminus. Muscle myosin S2 peptides were dissolved in 20 mM HEPES buffer at pH 8.0. And FITC was dissolved in few drops of N, N dimethyl formamide. Lastly, FITC and muscle myosin S2 peptide was reacted together in 1 to 1 molar ratio and was let to react for 120 minutes at room temperature. The FITC conjugated S2 peptides were purified using […]. […]
# In FRET assay, Fluorescein Isothiocyanate (FITC) functioned as fluorescent acceptor probe and Terbium Diethylene Triamine Pentaacetic Acid-Cytosine (Lanthanide-DTPA-Cytosine) functioned as donor probe. […] Lifetime of donor probe was measured in milliseconds.
# E924K and Edel930; the myosin S2 HCM mutants, form unstable dimers. […] The calculated separation distance in presence of the stabilizer peptide was 3.65 nm. […]
# [2] = test system: rabbit skeletal myosin (myosin S2 coiled coil); experiment: GFS with rabbit skeletal myosin tethered by S1 heads to G-actin; type: biochemical
# Experimental: To test stability and flexibility of myosin S2 peptide two different types of conjugation was performed to tether the molecule between the immobile edge and mobile edge. First conjugation was crosslinking the muscle myosin S2 peptides to immobile edge and mobile bead. A different conjugation was benefiting from the binding property of actin to myosin S1. Rabbit skeletal myosin molecule at myosin S1 position was bound with G-actin treated immobile edge and mobile bead.
# This conjugation was done by first, treating glass coverslips and silica beads with 0.04% 3-aminopropyltriethoxylsilane in acetone to add the aminosilane groups to both glass coverslips and silica beads. To cross link G-actin to the aminosilanated glass coverslips and silica beads 740 mM 1-ethyl-3-(3 dimethyaminopropyl) carbodiimide was used with help of 60 μM N-hydroxysuccinamide. To block any unreacted group, glycine quenching solution was added. Lastly, both glass coverslips and silica beads went over several washes with low salt buffer and were stored in the same low salt buffer for GFS experiments.
# The point of attachment to tether myosin molecule between immobile edge of the coverslip and mobile beads, was at the acto-myosin S1 binding region. The edge of the coverslips and silica beads are coated with G-actin molecules. […]
SMILES,TD (donor lifetime without acceptor) [1],force required to uncoil myosin relative to absence of peptide (less) ([2]; destabilizer peptide vs control),"Force required to uncoil the myosin molecule ([2]; length 100 nm, in presence of destabilizer peptide)"
C[C@H](NC(=O)[C@H](CCCCN)NC(=O)[C@H](Cc1ccccc1)NC(=O)[C@H](CCCCN)NC(=O)[C@H](CCCCN)NC(=O)[C@H](CCCCN)NC(=O)[C@H](CCCCN)NC(=O)[C@H](CCCCN)NC(=O)[C@H](CCCCN)NC(=O)[C@H](CCCCN)NC(=O)[C@@H](N)CCCCN)C(=O)N[C@@H](CCCCN)C(=O)N[C@@H](CCCCN)C(=O)N[C@@H](CCCCN)C(=O)N[C@@H](CCCCN)C(=O)N[C@@H](CCCCN)C(=O)N[C@@H](CCCCN)C(=O)O [Stabilizer],1.94E−03,–,–
CSCC[C@H](NC(=O)[C@H](CCC(=O)O)NC(=O)[C@H](CCCNC(=N)N)NC(=O)[C@H](CCC(=O)O)NC(=O)[C@H](CC(=O)O)NC(=O)[C@H](CCC(=O)O)NC(=O)[C@H](CC(C)C)NC(=O)[C@H](CCCNC(=N)N)NC(=O)[C@H](CCC(=O)O)NC(=O)[C@H](CC(N)=O)NC(=O)[C@H](CCSC)NC(=O)[C@@H](N)CCC(=O)O)C(=O)N[C@@H](CCCCN)C(=O)N[C@@H](C)C(=O)N[C@@H](CCC(=O)O)C(=O)N[C@@H](CC(C)C)C(=O)N[C@H](C(=O)N[C@@H](C)C(=O)N[C@@H](CCCCN)C(=O)O)[C@@H](C)O [Destabilizer],–,1.6 times,3.09±0.05 pN
